According to US10882866B1, “Spiro[3H-indole-3,2′-pyrrolidin]-2(1H)-one compounds and derivatives as MDM2-P53 inhibitors” (Boehringer Ingelheim International GmbH, priority 2015, dated 2021):
pIC50: −log10 of the molar value.

Legend:
[1] = molecular target: GST-MDM2 protein (aa 23-117) / biotinylated p53 wt peptide (p53-MDM2 interaction) (Homo sapiens (Human), UniProt Q00987); experiment: Mdm2-p53 Inhibition AlphaScreen; format: binding; conditions: 20 nM GST-MDM2 (aa 23-117), 20 nM biotinylated p53 wt peptide
Chain of GST-MDM2 protein (aa 23-117) / biotinylated p53 wt peptide (p53-MDM2 interaction) (Q00987 23-117): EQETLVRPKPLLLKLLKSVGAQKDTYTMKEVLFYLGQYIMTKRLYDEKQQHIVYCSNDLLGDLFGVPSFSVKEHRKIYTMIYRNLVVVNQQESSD
Method: Mdm2-p53 Inhibition AlphaScreen
15 μL of compound in 20% DMSO (serial pre-dilutions of compound are done in 100% DMSO) is pipetted to the wells of a white OptiPlate-96 (PerkinElmer). A mix consisting of 20 nM GST-MDM2 protein (aa 23-117) and 20 nM biotinylated p53 wt peptide (encompassing aa 16-27 of wt human p53, amino acid sequence […]-Ttds-Lys-Biotin, molecular weight 2132.56 g/mol) is prepared in assay buffer (50 mM Tris/HCl pH 7.2; 120 mM NaCl; 0.1% bovine serum albumin (BSA); 5 mM dithiothreitol (DTT); 1 mM ethylenediaminetetraacetic acid (EDTA); 0.01% Tween 20). 30 μL of the mix is added to the compound dilutions and incubated for 15 min at rt while gently shaking the plate at 300 rounds per minute (rpm). Subsequently, 15 μL of premixed AlphaLISA Glutathione Acceptor Beads and AlphaScreen Streptavidin Donor Beads from PerkinElmer (in assay buffer at a concentration of 10 μg/mL each) are added and the samples are incubated for 30 min at rt in the dark (shaking 300 rpm). Afterwards, the signal is measured in a PerkinElmer Envision HTS Multilabel Reader using the AlphaScreen protocol from PerkinElmer.
Each plate contains negative controls where biotinylated p53-peptide and GST-MDM2 are left out and replaced by assay buffer. Negative control values are entered as low basis value when using the software GraphPad Prism for calculations. […]

[2] = tested on: human prostate tumor xenograft models harboring p53 wild-type; conditions: cited from earlier work
[3] = tested on: human acute myeloid leukemia (AML) xenograft models harboring p53 wild-type; conditions: cited from earlier work

| pIC50 [1] | SMILES | antiproliferative and proapoptotic activity [2] | antiproliferative and proapoptotic activity [3] |
| --- | --- | --- | --- |
| 8.70 | COc1cc2c(cc1C(N)=O)nc1n2CC[C@H]2[C@@H]1[C@H](c1cccc(Cl)c1F)[C@]1(C(=O)Nc3cc(Cl)ccc31)N2CC1CC1 [Ib-234] | – | – |
| – | CCOc1cc(C(C)(C)C)ccc1C1=N[C@@](C)(c2ccc(Cl)cc2)[C@@](C)(c2ccc(Cl)cc2)N1C(=O)N1CCN(CCCS(C)(=O)=O)CC1 [RG7112] | antiproliferative and proapoptotic activity of RG7112 has been observed | antiproliferative and proapoptotic activity of RG7112 has been observed |
